According to ChEMBL document CHEMBL5291721, “A preclinical secondary pharmacology resource illuminates target-adverse drug reaction associations of marketed drugs” (Nat Commun, 2023):

How the values were obtained:
[1] = biological target: T1, Muscarinic acetylcholine receptor M1 (Homo sapiens, UniProt P11229); assay type: functional, cell-based
T1 sequence (P11229 whole entry): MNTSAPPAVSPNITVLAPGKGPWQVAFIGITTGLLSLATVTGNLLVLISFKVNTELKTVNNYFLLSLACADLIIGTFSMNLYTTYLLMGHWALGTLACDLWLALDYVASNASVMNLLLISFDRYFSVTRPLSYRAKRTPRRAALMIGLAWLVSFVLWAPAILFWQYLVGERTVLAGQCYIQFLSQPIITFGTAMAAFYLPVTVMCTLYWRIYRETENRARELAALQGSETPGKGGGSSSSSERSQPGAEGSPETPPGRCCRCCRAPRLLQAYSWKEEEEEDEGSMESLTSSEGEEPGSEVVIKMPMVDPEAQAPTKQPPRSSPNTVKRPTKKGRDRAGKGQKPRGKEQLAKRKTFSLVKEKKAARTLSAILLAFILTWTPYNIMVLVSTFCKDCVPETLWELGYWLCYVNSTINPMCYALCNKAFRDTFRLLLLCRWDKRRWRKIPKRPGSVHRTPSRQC

D(3) dopamine receptor = D(3) dopamine receptor (Homo sapiens, UniProt P35462)
D(3) dopamine receptor, sequence (P35462 whole entry): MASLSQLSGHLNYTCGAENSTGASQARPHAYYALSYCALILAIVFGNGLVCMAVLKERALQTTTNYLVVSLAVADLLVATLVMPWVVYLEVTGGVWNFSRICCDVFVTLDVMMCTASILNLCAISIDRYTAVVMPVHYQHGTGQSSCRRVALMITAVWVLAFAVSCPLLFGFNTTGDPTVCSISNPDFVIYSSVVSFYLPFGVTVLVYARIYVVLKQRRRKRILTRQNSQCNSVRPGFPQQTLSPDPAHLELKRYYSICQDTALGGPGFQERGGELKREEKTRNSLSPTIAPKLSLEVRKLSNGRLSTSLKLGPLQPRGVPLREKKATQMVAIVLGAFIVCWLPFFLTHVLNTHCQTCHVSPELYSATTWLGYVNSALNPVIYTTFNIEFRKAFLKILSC

[2] = biological target: T2, 5-hydroxytryptamine receptor 1A (Homo sapiens, UniProt P08908)
T2 sequence (P08908 whole entry): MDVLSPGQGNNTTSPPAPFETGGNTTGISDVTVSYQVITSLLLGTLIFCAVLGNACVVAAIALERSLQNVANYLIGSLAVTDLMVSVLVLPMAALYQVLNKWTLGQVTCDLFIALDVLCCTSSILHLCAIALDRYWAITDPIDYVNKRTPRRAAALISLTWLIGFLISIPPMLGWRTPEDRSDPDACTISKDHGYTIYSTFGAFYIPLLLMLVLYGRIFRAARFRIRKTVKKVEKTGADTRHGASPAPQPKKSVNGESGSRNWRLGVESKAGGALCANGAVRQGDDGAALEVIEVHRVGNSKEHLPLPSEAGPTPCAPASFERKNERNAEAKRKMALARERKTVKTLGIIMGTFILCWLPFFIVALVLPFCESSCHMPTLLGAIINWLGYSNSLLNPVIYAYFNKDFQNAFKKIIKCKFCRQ

[3] = biological target: 5-hydroxytryptamine receptor 2B (Homo sapiens, UniProt P41595); assay type: functional, cell-based
[4] = biological target: Vascular endothelial growth factor receptor 2 (Homo sapiens, UniProt P35968); assay type: functional
Vascular endothelial growth factor receptor 2, sequence (P35968 whole entry): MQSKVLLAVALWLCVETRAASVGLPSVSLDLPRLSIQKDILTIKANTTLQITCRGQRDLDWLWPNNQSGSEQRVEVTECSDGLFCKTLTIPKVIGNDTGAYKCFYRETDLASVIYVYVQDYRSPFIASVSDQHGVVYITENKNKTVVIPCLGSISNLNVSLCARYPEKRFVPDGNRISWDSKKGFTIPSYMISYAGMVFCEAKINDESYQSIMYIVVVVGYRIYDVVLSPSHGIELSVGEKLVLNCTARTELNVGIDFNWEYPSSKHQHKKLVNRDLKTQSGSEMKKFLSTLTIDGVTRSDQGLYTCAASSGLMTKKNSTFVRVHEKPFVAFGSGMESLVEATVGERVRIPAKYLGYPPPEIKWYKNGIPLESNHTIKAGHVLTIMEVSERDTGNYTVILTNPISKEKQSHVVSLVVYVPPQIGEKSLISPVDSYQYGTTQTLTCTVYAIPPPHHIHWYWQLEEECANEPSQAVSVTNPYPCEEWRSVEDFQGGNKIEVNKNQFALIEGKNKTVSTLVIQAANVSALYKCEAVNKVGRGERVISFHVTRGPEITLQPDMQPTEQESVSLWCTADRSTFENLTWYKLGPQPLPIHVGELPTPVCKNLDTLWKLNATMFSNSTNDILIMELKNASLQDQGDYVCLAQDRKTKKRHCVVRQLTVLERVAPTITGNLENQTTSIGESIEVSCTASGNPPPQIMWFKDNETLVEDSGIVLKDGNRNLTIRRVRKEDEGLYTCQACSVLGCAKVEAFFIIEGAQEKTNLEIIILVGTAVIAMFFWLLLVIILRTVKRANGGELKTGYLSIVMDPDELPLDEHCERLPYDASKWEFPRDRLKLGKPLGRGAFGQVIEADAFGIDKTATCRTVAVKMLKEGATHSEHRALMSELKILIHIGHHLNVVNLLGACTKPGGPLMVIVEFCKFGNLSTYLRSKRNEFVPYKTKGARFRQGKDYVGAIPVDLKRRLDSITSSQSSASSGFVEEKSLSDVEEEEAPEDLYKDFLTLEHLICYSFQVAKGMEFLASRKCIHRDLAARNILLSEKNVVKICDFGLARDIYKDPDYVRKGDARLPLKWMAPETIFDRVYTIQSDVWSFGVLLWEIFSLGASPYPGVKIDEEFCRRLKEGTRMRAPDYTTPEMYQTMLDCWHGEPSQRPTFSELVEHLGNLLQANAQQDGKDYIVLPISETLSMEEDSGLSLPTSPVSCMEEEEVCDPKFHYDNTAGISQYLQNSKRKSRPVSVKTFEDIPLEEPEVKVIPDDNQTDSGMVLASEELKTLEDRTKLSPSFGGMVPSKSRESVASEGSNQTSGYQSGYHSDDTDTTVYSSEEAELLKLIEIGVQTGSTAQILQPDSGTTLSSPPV

[5] = biological target: T3, Amine oxidase [flavin-containing] A (Homo sapiens, UniProt P21397); assay type: functional
T3 sequence (P21397 whole entry): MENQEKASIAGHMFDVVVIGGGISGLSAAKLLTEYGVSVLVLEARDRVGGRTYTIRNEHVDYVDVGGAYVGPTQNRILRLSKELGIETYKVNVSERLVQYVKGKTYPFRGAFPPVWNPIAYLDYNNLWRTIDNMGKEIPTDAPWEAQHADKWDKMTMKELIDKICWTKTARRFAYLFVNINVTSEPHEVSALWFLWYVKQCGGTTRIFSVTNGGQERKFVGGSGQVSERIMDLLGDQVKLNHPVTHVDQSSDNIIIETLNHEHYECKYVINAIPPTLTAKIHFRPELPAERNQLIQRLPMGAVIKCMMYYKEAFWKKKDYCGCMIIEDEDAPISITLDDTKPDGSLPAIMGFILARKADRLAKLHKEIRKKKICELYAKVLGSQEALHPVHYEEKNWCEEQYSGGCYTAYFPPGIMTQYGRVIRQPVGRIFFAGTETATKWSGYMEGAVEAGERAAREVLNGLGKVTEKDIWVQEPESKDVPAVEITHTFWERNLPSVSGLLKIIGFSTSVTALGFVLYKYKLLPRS

[6] = biological target: Epidermal growth factor receptor (Homo sapiens, UniProt P00533); assay type: functional
Epidermal growth factor receptor, sequence (P00533 whole entry): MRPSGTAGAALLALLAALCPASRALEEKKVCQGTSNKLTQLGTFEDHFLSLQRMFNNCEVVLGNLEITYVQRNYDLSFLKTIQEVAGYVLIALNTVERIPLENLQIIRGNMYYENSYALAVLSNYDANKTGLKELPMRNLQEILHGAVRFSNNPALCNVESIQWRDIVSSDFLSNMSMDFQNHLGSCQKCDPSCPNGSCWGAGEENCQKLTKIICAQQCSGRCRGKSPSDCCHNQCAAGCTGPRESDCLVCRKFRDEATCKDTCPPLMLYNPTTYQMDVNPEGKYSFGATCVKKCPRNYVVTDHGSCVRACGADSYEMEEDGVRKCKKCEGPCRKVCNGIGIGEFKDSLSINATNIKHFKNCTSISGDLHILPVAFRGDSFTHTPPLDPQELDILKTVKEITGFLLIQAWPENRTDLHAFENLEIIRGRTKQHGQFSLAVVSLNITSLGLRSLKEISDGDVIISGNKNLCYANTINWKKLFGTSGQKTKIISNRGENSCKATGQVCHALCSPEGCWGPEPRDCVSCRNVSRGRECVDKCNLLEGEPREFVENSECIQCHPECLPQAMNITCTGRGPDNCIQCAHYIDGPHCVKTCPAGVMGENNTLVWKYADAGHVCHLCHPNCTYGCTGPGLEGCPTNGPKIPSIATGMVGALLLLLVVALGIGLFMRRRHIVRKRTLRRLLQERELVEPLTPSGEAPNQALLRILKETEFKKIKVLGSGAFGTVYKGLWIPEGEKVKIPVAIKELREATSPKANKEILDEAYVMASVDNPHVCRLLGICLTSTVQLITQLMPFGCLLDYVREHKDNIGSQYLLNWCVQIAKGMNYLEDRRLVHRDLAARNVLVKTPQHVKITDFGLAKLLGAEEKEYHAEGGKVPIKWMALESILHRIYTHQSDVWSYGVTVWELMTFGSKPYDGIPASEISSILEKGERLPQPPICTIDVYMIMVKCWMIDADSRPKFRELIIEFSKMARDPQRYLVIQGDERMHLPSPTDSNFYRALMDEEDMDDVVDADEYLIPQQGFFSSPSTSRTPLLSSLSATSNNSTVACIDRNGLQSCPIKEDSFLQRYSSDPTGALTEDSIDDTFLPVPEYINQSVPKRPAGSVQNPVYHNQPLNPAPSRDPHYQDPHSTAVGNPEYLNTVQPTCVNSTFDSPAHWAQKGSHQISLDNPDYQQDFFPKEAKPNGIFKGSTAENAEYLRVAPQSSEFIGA

Histamine H1 receptor = Histamine H1 receptor (Homo sapiens, UniProt P35367); assay type: functional, cell-based
Histamine H1 receptor, sequence (P35367 whole entry): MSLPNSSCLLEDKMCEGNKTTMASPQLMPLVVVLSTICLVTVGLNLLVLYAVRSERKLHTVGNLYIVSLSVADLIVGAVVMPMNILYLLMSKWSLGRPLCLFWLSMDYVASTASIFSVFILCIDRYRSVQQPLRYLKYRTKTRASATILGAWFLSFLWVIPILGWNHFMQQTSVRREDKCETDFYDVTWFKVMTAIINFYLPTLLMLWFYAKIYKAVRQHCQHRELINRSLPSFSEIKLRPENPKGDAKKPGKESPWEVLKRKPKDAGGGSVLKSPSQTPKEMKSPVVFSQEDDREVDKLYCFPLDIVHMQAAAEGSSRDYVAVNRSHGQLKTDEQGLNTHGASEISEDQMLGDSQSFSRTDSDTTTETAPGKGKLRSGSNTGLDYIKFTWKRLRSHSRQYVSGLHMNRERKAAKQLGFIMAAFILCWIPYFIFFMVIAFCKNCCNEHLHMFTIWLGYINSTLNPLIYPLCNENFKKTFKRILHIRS

[7] = biological target: Gamma-aminobutyric acid receptor subunit alpha-1/alpha-2/beta-2/gamma-2 (Homo sapiens, UniProt P14867+P47870+P18507+P47869); assay type: functional, cell-based
D(1A) dopamine receptor [8] = biological target: T4, D(1A) dopamine receptor (Homo sapiens, UniProt P21728)
T4 sequence (P21728 whole entry): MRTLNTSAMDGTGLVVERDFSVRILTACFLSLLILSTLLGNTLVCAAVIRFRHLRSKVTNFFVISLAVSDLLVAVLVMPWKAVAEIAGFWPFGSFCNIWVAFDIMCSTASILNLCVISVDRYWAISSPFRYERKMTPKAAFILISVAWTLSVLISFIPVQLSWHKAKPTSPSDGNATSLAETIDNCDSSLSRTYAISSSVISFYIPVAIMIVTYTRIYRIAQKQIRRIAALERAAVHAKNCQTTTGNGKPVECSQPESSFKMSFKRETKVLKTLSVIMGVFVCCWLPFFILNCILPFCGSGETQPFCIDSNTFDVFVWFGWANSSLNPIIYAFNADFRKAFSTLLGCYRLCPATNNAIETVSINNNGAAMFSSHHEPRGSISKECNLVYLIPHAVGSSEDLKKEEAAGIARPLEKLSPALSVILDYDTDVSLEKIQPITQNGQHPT

[9] = biological target: T5, Peroxisome proliferator-activated receptor gamma (Homo sapiens, UniProt P37231); assay type: functional
T5 sequence (P37231 whole entry): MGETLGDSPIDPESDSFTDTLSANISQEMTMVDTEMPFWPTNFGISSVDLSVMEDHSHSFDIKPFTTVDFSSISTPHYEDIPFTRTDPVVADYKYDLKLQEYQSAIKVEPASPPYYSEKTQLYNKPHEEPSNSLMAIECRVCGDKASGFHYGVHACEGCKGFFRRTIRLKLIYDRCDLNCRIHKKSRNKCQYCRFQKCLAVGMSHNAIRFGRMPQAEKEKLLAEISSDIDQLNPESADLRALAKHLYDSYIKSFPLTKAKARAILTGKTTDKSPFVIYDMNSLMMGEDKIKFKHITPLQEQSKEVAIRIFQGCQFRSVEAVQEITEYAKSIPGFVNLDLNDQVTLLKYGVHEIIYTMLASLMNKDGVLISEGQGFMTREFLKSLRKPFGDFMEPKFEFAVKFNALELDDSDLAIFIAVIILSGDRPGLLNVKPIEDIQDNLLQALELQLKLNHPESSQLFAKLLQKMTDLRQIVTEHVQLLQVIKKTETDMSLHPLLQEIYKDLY

[10] = biological target: T5, Peroxisome proliferator-activated receptor gamma; assay type: functional; remark: listed apart in the source
D(1A) dopamine receptor [11] = biological target: T4, D(1A) dopamine receptor; assay type: functional, cell-based
Estrogen receptor beta = Estrogen receptor beta (Homo sapiens, UniProt Q92731)
Estrogen receptor beta, sequence (Q92731 whole entry): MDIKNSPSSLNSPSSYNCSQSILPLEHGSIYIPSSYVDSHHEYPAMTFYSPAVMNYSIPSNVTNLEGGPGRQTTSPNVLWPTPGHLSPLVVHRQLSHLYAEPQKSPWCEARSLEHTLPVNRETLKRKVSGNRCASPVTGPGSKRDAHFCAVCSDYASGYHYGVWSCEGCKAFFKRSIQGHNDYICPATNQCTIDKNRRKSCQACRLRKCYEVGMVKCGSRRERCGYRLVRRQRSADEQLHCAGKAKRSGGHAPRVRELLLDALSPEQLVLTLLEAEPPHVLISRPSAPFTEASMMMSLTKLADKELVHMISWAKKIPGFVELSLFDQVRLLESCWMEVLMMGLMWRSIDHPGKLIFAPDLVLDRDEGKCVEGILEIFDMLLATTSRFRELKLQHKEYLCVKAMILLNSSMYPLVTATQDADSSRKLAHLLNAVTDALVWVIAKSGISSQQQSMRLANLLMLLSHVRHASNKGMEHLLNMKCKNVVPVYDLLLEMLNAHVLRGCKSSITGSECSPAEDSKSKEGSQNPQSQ

[12] = biological target: Gamma-aminobutyric acid type B receptor subunit 1 (Homo sapiens, UniProt Q9UBS5)
[13] = biological target: 5-hydroxytryptamine receptor 7 (Homo sapiens, UniProt P34969)
5-hydroxytryptamine receptor 7, sequence (P34969 whole entry): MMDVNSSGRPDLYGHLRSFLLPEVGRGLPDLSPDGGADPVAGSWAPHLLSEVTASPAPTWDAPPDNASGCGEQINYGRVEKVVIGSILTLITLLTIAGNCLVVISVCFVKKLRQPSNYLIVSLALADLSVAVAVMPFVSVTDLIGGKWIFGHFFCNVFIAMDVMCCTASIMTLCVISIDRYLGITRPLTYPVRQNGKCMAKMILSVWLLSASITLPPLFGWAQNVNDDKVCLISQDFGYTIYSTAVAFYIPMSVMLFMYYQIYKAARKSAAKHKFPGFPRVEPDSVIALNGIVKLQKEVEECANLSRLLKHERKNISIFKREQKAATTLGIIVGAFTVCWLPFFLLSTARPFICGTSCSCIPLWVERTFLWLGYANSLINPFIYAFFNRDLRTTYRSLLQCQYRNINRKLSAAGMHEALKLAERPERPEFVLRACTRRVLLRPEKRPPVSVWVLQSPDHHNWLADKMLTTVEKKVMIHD
Further: assay procedure not described here.

CO[C@]12C[C@@H](COC(=O)c3cncc(Br)c3)CN(C)[C@@H]1Cc1cn(C)c3cccc2c13 [NICERGOLINE] showed an AC50 [1] of 1.86 µM, an AC50 (D(3) dopamine receptor) of 0.641 µM and an AC50 [2] of 0.003 µM. The AC50 [3] was over 30 µM, the AC50 [4] was over 30 µM and the AC50 [5] was over 30 µM.
With CC(CC1c2ccccc2CCc2ccccc21)CN(C)C (stereo unspecified) [BUTRIPTYLINE] the AC50 [6] was over 30 µM.
NC(=O)CN1CC(O)CC1=O (stereo unspecified) [OXIRACETAM] was tested, and the AC50 (Histamine H1 receptor) was over 30 µM.
THIMEROSAL gave an AC50 [7] of over 30 µM and an AC50 (D(1A) dopamine receptor [8]) of 10 µM.
Brc1c(NC2=NCCN2)ccc2nccnc12 [BRIMONIDINE] was tested, and the AC50 [9] was over 30 µM and the AC50 [10] was over 30 µM.
Work on Cc1cc(C(C)(C)C)c(O)c(C)c1CC1=NCCN1 [OXYMETAZOLINE] yielded an AC50 (D(1A) dopamine receptor [11]) of over 30 µM.
Cc1c(OCC(F)(F)F)ccnc1C[S+]([O-])c1nc2ccccc2[nH]1 (stereo unspecified) [LANSOPRAZOLE] gave an AC50 (Estrogen receptor beta) of over 30 µM, an AC50 [12] of over 10 µM and an AC50 [13] of over 10 µM.
